{"source": "ChEMBL document CHEMBL1909046", "about": "“DrugMatrix in vitro pharmacology data”", "key": {"Estrogen receptor": {"molecular_target": "T1, Estrogen receptor (Homo sapiens, UniProt P03372)", "T1 sequence (P03372 whole entry)": "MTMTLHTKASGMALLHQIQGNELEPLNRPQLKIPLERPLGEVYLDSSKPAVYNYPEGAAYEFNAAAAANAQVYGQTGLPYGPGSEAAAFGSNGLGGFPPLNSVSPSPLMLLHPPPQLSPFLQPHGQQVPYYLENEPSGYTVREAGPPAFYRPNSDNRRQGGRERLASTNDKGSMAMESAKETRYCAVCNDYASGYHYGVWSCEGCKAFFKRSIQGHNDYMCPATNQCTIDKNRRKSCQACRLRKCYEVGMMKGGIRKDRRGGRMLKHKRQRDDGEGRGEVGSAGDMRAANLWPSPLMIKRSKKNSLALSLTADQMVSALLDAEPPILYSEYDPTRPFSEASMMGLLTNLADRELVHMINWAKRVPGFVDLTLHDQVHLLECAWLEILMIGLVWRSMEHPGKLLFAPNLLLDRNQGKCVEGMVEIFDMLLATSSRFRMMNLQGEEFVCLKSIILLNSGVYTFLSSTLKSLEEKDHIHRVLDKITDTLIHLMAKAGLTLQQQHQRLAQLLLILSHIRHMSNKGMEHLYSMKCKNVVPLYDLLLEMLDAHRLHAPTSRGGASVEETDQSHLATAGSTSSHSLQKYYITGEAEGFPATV", "experiment": "biochemical"}, "[1]": {"molecular_target": "Voltage-gated inwardly rectifying potassium channel KCNH2 (Homo sapiens, UniProt Q12809)", "sequence (Q12809 whole entry)": "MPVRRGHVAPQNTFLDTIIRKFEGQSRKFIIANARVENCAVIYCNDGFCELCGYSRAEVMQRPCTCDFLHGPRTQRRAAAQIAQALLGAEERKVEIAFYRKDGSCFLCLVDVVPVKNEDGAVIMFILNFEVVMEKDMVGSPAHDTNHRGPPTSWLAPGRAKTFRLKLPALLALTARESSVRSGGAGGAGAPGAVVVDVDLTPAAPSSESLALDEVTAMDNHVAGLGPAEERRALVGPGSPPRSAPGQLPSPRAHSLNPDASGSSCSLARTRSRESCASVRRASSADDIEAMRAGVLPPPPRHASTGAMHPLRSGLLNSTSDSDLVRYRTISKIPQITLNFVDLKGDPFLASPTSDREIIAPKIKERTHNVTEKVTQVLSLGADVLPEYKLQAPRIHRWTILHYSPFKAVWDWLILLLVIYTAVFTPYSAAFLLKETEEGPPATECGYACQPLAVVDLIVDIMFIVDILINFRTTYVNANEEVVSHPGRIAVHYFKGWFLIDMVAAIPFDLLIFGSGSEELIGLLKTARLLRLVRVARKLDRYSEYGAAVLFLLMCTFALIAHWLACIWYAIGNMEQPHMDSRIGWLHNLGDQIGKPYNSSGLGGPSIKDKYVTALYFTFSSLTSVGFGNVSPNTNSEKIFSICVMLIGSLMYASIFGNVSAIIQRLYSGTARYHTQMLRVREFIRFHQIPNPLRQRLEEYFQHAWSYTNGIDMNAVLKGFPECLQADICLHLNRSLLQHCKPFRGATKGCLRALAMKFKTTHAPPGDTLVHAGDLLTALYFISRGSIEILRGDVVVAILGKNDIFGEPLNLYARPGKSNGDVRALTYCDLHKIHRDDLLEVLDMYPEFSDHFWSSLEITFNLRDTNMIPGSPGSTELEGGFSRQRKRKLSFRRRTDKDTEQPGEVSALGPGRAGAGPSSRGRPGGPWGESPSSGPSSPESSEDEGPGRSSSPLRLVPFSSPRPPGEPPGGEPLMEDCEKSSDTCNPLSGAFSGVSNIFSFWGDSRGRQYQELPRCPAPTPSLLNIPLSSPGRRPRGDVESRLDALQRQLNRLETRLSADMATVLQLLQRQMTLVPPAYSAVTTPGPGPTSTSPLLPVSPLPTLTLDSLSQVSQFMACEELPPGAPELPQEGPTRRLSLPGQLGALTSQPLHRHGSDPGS"}}}
{"smiles": "C#C[C@]1(O)CC[C@H]2[C@@H]3[C@H](C)CC4=C(CCC(=O)C4)[C@H]3CC[C@@]21C", "note": "[TIBOLONE]", "values": [{"measurement": "IC50", "setting": "Estrogen receptor", "value": 433, "unit": "nM"}, {"measurement": "Ki", "setting": "Estrogen receptor", "value": 124, "unit": "nM"}]}
{"smiles": "Cc1cc2c(s1)Nc1ccccc1N=C2N1CCN(C)CC1", "note": "[OLANZAPINE]", "values": [{"measurement": "IC50", "setting": "[1]", "value": 100000, "unit": "nM"}]}
